# Experimental data published in patent US20090118271A1, “Preventive or Therapeutic Agents for Pancreatic Cancer, Ovarian Cancer, or Liver Cancer Comprising a Novel Water-Soluble Prodrug” (CHUGAI SEIYAKU KABUSHIKI KAISHA, priority 2005, published 2009).
# Key:
# Type in all cases: in vivo
# [1] = system: human pancreatic cancer cell line AsPC-1; experiment: Antitumor effect in AsPC-1 tumor-bearing nude mice; conditions: AsPC-1 s.c. xenograft, BALB/c nude mice, 60 mg/kg/inj. (47 in terms of free base) intravenously, once a week for three weeks
# Experimental: (§1) Antitumor effects were determined for representative examples of the compound groups of the present invention. Antitumor effects were determined using tumor-bearing mice generated by subcutaneous transplantation of human pancreatic cancer cell line AsPC-1 obtained from American Type Culture Collection (Virginia, USA) into the right ventral neck of BALB/c nude mice purchased from Japan Charles River.
# After a one-week quarantine period, the purchased nude mice were subjected to subcutaneous transplantation of 4.8×10^6 AsPC-1 cells to their right ventral neck. Mice with a tumor size reaching 200 mm^3 or so were subjected to the experiment.
# (§2) The compounds were dissolved in 1 mM citric acid/physiological saline (pH3.1-3.2), and were administered intravenously. The administration was carried out once a week for three weeks, for a total of three administrations. The antitumor effect was determined as tumor growth inhibition (TGI), using the following equation.
# (§3) Tumor growth inhibition (TGI) (%)={(1−amount of tumor growth in the group treated with the drug/amount of tumor growth in the control group)×100}
# [2] = system: human pancreatic cancer cell line Capan-1; experiment: Antitumor effect in Capan-1 tumor-bearing nude mice; conditions: Capan-1 s.c. xenograft, BALB/c nude mice, 66 mg/kg/inj. (47 in terms of free base) intravenously, once a week for three weeks
# Experimental: as §1, with “Capan-1” for “AsPC-1”
# After a 19-day quarantine period, the purchased nude mice were subjected to subcutaneous transplantation of 10×10^6 Capan-1 cells to their right ventral neck. Mice with a tumor size reaching 260 mm^3 or so were subjected to the experiment.
# as §2, §3
# [3] = system: human pancreatic cancer cell line BxPC-3; experiment: Antitumor effect in BxPC-3 tumor-bearing nude mice; conditions: BxPC-3 s.c. xenograft, BALB/c nude mice, 66 mg/kg/inj. (47 in terms of free base) intravenously, once a week for three weeks
# Experimental: as §1, with “BxPC-3” for “AsPC-1”
# After a seven-day quarantine period, the purchased nude mice were subjected to subcutaneous transplantation of 9×10^6 BxPC-3 cells to their right ventral neck. Mice with a tumor size reaching 400 mm^3 or so were subjected to the experiment.
# as §2, §3
# [4] = system: human ovarian cancer cell line PA-1; experiment: Antitumor effect in PA-1 tumor-bearing nude mice; conditions: PA-1 s.c. xenograft, BALB/c nude mice, 40 mg/kg/inj. (32 in terms of free base) intravenously, once a week for three weeks
# Experimental: as §1, with “by the” for “by”, “ovarian” for “pancreatic”, “PA-1” for “AsPC-1”
# After a one-week quarantine period, the purchased nude mice were subjected to subcutaneous transplantation of 9.8×10^6 PA-1 cells to their right ventral neck. Mice with a tumor size reaching 200 mm^3 or so were subjected to the experiment.
# (§4) The compounds were dissolved in physiological saline, and were administered intravenously. The administration was carried out once a week for three weeks, for a total of three administrations. The antitumor effect was determined as tumor growth inhibition (TGI), using the following equation.
# Tumor growth inhibition (TGI) (%) {(1−amount of tumor growth in the group treated with the drug/amount of tumor growth in the control group)×100}
# [5] = system: human ovarian cancer cell line SK-OV-3; experiment: Antitumor effect in SK-OV-3 tumor-bearing nude mice; conditions: SK-OV-3 s.c. xenograft, BALB/c nude mice, 60 mg/kg/inj. (47 in terms of free base) intravenously, once a week for three weeks
# Experimental: Antitumor effects were determined for representative examples of the compound groups of the present invention. Antitumor effects were determined using tumor-bearing mice generated by subcutaneous transplantation of the human ovarian cancer cell line SK-OV-3 obtained from American Type Culture Collection (Virginia, USA) into the right ventral neck of BALB/c nude mice purchased from Japan Charles River.
# After a six-day quarantine period, the purchased nude mice were subjected to subcutaneous transplantation of a 2-3 mm square piece of the SK-OV-3 tumor to their right ventral neck. Mice with a tumor size reaching 210 mm^3 or so were subjected to the experiment.
# as §4, §3
# [6] = system: human liver cancer cell line PLC/PRF/5; experiment: Antitumor effect in PLC/PRF/5 tumor-bearing nude mice; conditions: PLC/PRF/5 s.c. xenograft, BALB/c nude mice, 60 mg/kg/inj. (47 in terms of free base) intravenously, once a week for three weeks
# Experimental: as §1, with “liver” for “pancreatic”, “PLC/PRF/5” for “AsPC-1”, “Human Science” for “American Type Culture Collection (Virginia, USA)”
# After a one-week quarantine period, the purchased nude mice were subjected to subcutaneous transplantation of 20×10^6 PLC/PRF/5 cells to their right ventral neck. Mice with a tumor size reaching 200 mm^3 or so were subjected to the experiment.
# as §4, §3
compound,measurement,setting,value
"CCCCCN1C=Nc2cccc3nc4c(c1c23)Cn1c-4cc2c(c1=O)COC(=O)[C@@]2(CC)OC(=O)CN(C)C(=O)CN.Cl [Compound 2A, (9S)-9-Ethyl-9-(glycyl-sarcosyloxy)-1-pentyl-1H,12H-pyrano[3″,4″:6′,7′]indolizino[1′,2′:6,5]pyrido[4,3,2-de]quinazoline-10,13(9H,15H)-dione Hydrochloride]",TGI (%) on Day 21,[1],73%
same,TGI (%) on Day 21,[2],122%
same,TGI (%) on Day 14,[3]; Day 14,55%
same,TGI (%) on Day 21,[3]; Day 21,47%
same,TGI (%) on Day 21,[4],84%
same,TGI (%) on Day 21,[5],52%
same,TGI (%) on Day 21,[6],84%
